Patent US4870057A, “Use of fructose-1,6-diphosphate in the treatment of acute alcoholic intoxication and chronic ethylism, and related pharmaceutical compositions” (priority 1988, dated 1989)
Several values for one entry are separate records, joined by “and”; a condition that tells them apart may be missing. Identical values can stand only once.

Key:
[1] = tested on: patients in a state of acute drunkenness; assay: Vital signals (heart rate, arterial pressure) in patients with acute drunkenness; assay type: in vivo, patients (human)
Description: (§1) 28 patients were selected, 26 males and 2 females, aged 17 to 68, which had been taken to a first aid post for traumas suffered during a state of acute drunkenness (18 cases) or to phenomena resulting from that state of drunkenness (10 cases). Of the patients under observation, 18 were chronic alcoholics and 10 were subjects with no alcoholism story (Table 4).
(§2) The patients then received, at random, one rapid infusion of 15 g FDP as a 10% sodium salt solution of FDP, or a 5% (150 ml) glucose solution. 15 minutes after the completion of infusion, evaluations were repeated.
(§3) Following the first anamnestic and diagnostic checks, measurements were taken of the arterial pressure and the heart rate. Then, evaluation was made, in basal conditions, of the psychic and behavioral state (psychomotor excitement, vigilance, time-space orientation and lucidity) and the neurological state (equilibrium, forefinger-nose test, palpebral, corneal and pain reflexes). For the semiquantitative evaluation of the selected parameters, severity scales with arbitrary ratings were adopted. Evaluation of lucidity was made by using the figure repeating test.
(§4) The data obtained for each patient were compared with those obtained before the treatment by means of the mixed pattern variance analysis followed, in case of gross significance, by the Tukey's multiple comparison test. A 5% level was used as the minimum level of statistical significance.

[2] = tested on: chronic alcoholics at a stage of detoxication; assay: Psychiatric symptoms (psychic and behavioural state scores) in chronic alcoholics at a stage of detoxication; assay type: in vivo, patients (human); settings: for Motor derangement score: FDP group (20 g/day i.v. days II-VII plus nutrition), basal 1.4; for Motor derangement score / Behavioural disorders score / Conscience disorders score: p < 0.01 vs basal; for Behavioural disorders score / Conscience disorders score: FDP group; for Behavioural disorders score: basal 1.3; for Conscience disorders score: basal 1.5
Description: (§5) This study left out patients more than 70 years old or patients suffering from severe renal or cardiovascular impairment, diabetes or other pathologies (epilepsy, delirium […] could prevent evaluation of the investigated treatment. During study, which was conducted single blind, two therapeutic procedures were compared for a period of 8 days allotted as follows: one day (I) for selection and basic determinations at the time of alcohol withdrawal; six days (II-VII) for treatment; one day (VIII) for follow-up. […] Some of the patients received, days II to IV, a total parenteral nutrition (NTP) followed by hypercaloric diet during the remaining three days. During the study, no further drugs were administered except those which would be required by concomitant pathologies and which could not interfere with the nutritional state. In the patients imperatively requiring a control of psychomotor derangement during the abstinence period, chlordimethyldiazepam (2 mg/iv) was used and the daily doses thereof were recorded. On the first day the history, particularly in respect of alcoholism, was obtained. On days I, V and VIII a thorough examination of the patient's neurological and psychiatric conditions was performed. The psychic areas were evaluated by using simplified rating scales for the psychomotor derangement and the behaviour and consciousness disorders present in the alcohol withdrawal period. For the neurological evaluation, there were taken into consideration the reflexes, the exteroceptive and propioceptive sensitivities and the presence of ataxia, tremors and cramps, and semiquantitative ratings of 0 (no symptom or normal picture) to 3 (high severity symptom or no response) were assigned.

[3] = Tolerability in patients with acute drunkenness; settings: human, in vivo
Description: as §1, §2

[4] = Ethanol hematic concentrations and pharmacokinetics in volunteers given ethanol orally after FDP infusion (cross-over); assay type: in vivo, male volunteers (human)
Text: (§6) Male volunteers (ages 19 to 46, 73 kg average weight) in good conditions of health as ascertained by objective test and hematologic and biochemical analyses, participated in the investigation. None of the subjects had used drugs during the week before the study nor in the course of the study.
(§7) Each subject was given, in two sittings, with one wash-out week interval between sittings, ethanol (control) and ethanol with added fructose-1,6-diphosphate (FDP) according to an experimental cross-over design. After one night of fasting, each patient received ethanol orally, in the morning, at a rate of 0.5 g/kg body weight, as a 30% analytical grade ethyl alcohol solution in effervescent mineral water. FDP was administered at the rate of 250 mg/kg of fructose-1,6-diphosphate sodium hydrate salt in an intravenous infusion during 20 minutes (2.5 ml/kg).
(§8) From the individual data obtained in each sitting and for each subject, the values of the following parameters were calculated: maximum concentration (Cmax), time for attaining maximum concentration (Tmax), mean life of absorption (Ab t1/2), mean life of elimination (El t1/2) and area under curve zero to infinity (AUC). The ethanol and acetaldehyde concentrations were measured in the two sittings of study and the values of the pharmacokinetic parameters given above were compared by the Student's t-test for paired data, with the exception of the maximum concentration times of ethanol which were compared by the Wilcoxon test. The level of statistical significances was set at 5%.

[5] = tested on: patients in a state of acute drunkenness; assay: Impairment scores in neurologic tests in patients with acute drunkenness; assay type: in vivo, patients (human)
Description: as §1, §2, §3, §4

[6] = tested on: patients in a state of acute drunkenness; assay: Psychic and behavioural conditions scores in patients with acute drunkenness; assay type: in vivo, patients (human)
Description: as §1, §2, §3, §4

[7] = Acetaldehyde hematic concentrations in volunteers given ethanol orally after FDP infusion (cross-over); assay type: in vivo, male volunteers (human); settings: Student's t test for coupled data
Text: as §6
as §7, with “FDP was administered at the rate of 250 mg/kg of fructose-1,6-diphosphate sodium hydrate salt in an intravenous infusion during 20 minutes (2.5 ml/kg).” left out
as §8, with “The level of statistical significances was set at 5%.” left out

[8] = no test described; cited from earlier work
[9] = tested on: chronic alcoholics at a stage of detoxication; assay: Neurological symptoms (impairment scores in neurological tests) in chronic alcoholics at a stage of detoxication; assay type: in vivo, patients (human); settings: for Reflexes impairment score: basal 1.6, control 1.2; for Ataxia-tremors cramps impairment score: basal 1.7; for Sensitivity impairment score: basal 3.0
Description: as §5

## O=C(COP(=O)(O)O)[C@@H](O)[C@H](O)[C@H](O)COP(=O)(O)O [FDP, fructose-1,6-diphosphate]
[1]; 15 min after infusion of 15 g FDP, basal 67.9 (text 68), p < 0.05 vs basal, glucose 69.6 to 69.6
  Arterial diastolic pressure, final: 75.3 mm Hg and 75 mm Hg
[1]; 15 min after infusion of 15 g FDP, basal 103.1, p < 0.01 vs basal, glucose 101.7 to 96.9
  Cardiac frequency, final: 94.4 beats/minute
[1]; 15 min after infusion of 15 g FDP, basal 113.2, glucose 113.1 to 110.8
  Arterial sistolic pressure, final: 116.5 mm Hg
[1]; after FDP
  Blood pressure and heart rate in subjects with basal hypertension accompanied by tachycardia: permits the normal values of both blood pressure and heart rate to be restored
[1]; after FDP, from 103 basal, significant
  Heart rate, final: 94 pulsations/minute
[2]; day V, control 0.8
  Motor derangement score: 0.6
[2]; day VIII, control 0.5
  Motor derangement score: 0.4
  Behavioural disorders score: 0.3
  Conscience disorders score: 0.2
[2]; day V, control 0.7
  Behavioural disorders score: 0.4
[2]; day V, control 0.6
  Conscience disorders score: 0.3
[2]; FDP vs no FDP
  Consumption of chlordimethyldiazepam: higher consumption of chlordimethyldiazepam required by patients not having get FDP
[2]; day V, FDP treated patients only, p<0.01
  Psychiatric symptoms, improvement: improvement of all of the considered symptoms
[2]; eighth day, FDP treated patients, not in control group
  Consciousness disorders: the consciousness disorders did disappear in FDP treated patients
[2]; patients treated with FDP
  Psychiatric symptomatology connected with the alcohol withdrawal: disappeared after only five days of treatment
[3]
  Tolerability: good tolerability
[4]; 0-90 min, vs control (FIG. 1)
  Ethanol AUC in the 0-90 min range, lower following FDP: 40%
[4]; 15 min
  Percent difference of ethanol concentration after FDP with respect to control (lower): 70%
[4]; 30 min
  Percent difference of ethanol concentration after FDP with respect to control (lower): 64%
[4]; 60 min
  Percent difference of ethanol concentration after FDP with respect to control (lower): 31%
[4]; FDP session, Table 2, n = 8, SD 976, control 2229
  Ethanol AUC (zero to infinity), average: 2695 mmol·min/L
[4]; FDP sitting, control 2695
  Ethanol AUC (zero to infinity), average: 2229 mmol·min/L
[4]; Student's t test, paired
  Significance of the difference in ethanol AUC vs control: no significant differences
  Significance of the difference in ethanol maximum concentration vs control: the observed difference did not attain statistical significance
[4]; from absorption half-life vs control, p<0.05
  Difference in the alcohol absorption rate: 66%
[4]; p<0.05 vs control sitting
  Time for attaining maximum ethanol concentration, longer than control: 120%
[5]; 15 min after infusion of 15 g FDP, basal 0.1, glucose 0.1 to 0.1
  Corneal reflex impairment score, final: 0.0
[5]; 15 min after infusion of 15 g FDP, basal 0.4, p < 0.05 vs basal, glucose 0.5 to 0.1
  Palpebral reflex impairment score, final: 0.0
[5]; 15 min after infusion of 15 g FDP, basal 0.9, p < 0.05 vs basal, glucose 0.5 to 0.2
  Pain reflex impairment score, final: 0.3
[5]; 15 min after infusion of 15 g FDP, basal 1.3, p < 0.01 vs basal, glucose 0.9 to 0.7
  "Forefinger-nose" test impairment score, final: 0.4
[5]; 15 min after infusion of 15 g FDP, basal 1.6, p < 0.01 vs basal, glucose 1.1 to 0.9
  Equilibrium impairment score, final: 1.1
[5]; after FDP
  Postural equilibrium, forefinger-nose test, palpebral and pain reflexes: significantly improved
[5]; at the end of FDP treatment, all the patients
  Corneal reflex in patients with basal impairment: normal state in this respect at the end of FDP treatment
[6]; 15 min after infusion of 15 g FDP, basal 1.1, p < 0.01 vs basal, glucose 1.0 to 0.7
  Motor derangement score, final: 0.3
[6]; 15 min after infusion of 15 g FDP, basal 1.1, p < 0.01 vs basal, glucose 1.2 to 1.0 (p < 0.05 vs final FDP)
  Vigilance impairment score, final: 0.5
[6]; 15 min after infusion of 15 g FDP, basal 1.6, p < 0.01 vs basal, glucose 1.5 to 2.5
  Lucidity level score, final: 3.6
[6]; 15 min after infusion of 15 g FDP, basal 4.5, p < 0.01 vs basal, glucose 4.3 to 3.4 (p < 0.05 vs final FDP)
  Orientation impairment score, final: 1.7
[6]; FDP vs glucose solution
  Comparison of treatments, final values for vigilance and orientation: significant difference between FDP and glucose solution
[6]; after FDP
  State of psychomotor disorder: tends towards complete disappearance
  Vigilance, orientation and mental lucidity: notably improved, with the tendency being towards return to normal levels
[6]; after FDP vs basal
  Psychic and behavioural state, all parameters: all of the parameters show to be positively and significantly influenced
[7]
  Significance of acetaldehyde concentration differences, FDP vs control: no statistically significant differences at any of the considered times and ns
[8]
  Elimination half-life of the FDP: less than 15 minutes
[9]; FDP group (20 g/day i.v. days II-VII plus nutrition), day V
  Reflexes impairment score: 1.2
[9]; FDP group, day V, p < 0.01 vs basal, control 0.9
  Ataxia-tremors cramps impairment score: 1.0
[9]; FDP group, day V, p < 0.01 vs basal, control 2.4
  Sensitivity impairment score: 2.1
[9]; FDP group, day VIII, p < 0.01 vs basal
  Reflexes impairment score: 1.0
[9]; FDP group, day VIII, p < 0.01 vs basal, control 0.8
  Ataxia-tremors cramps impairment score: 0.5
[9]; FDP group, day VIII, p < 0.01 vs basal, control 1.7
  Sensitivity impairment score: 1.8
[9]; day VIII, only in FDP treated group
  Reflexes, recovery: the reflexes recovered to normal
[9]; evolutive tendency in the course of the study
  Remaining neurological symptomatology, FDP vs control: does not evidence any difference betwen the two treatments
